# From the supplement of paper PMC10307832
# Experiments:
# Test in all cases: relative viability (nuclei count vs DMSO), 5 days (fraction); higher = more cells survive
# Shikonin = compound: CC(C)=CC[C@@H](O)C1=CC(=O)c2c(O)ccc(O)c2C1=O [Shikonin]
# In short: (§1)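 In 1536-well plates, lung cancer cell lines rested overnight at 37 °C before five library-drug doses (not always all listed), √10 apart, were pinned onto vehicle-anchored plates. Nuclei were counted with MetaXpress from 4× Hoechst images taken after 5 days without medium change. Viability compares treated-well with vehicle-well nuclei as a median over plates, and plates needed control CV below 25% plus at least one doubling to pass.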
# [1] = compound: CC(C)N(CCCNC(=O)Nc1ccc(C(C)(C)C)cc1)C[C@H]1O[C@@H](n2ccc3c(N)ncnc32)[C@H](O)[C@@H]1O
# In short: as §1
# Shikonin + OSI-027 = compound: CC(C)=CC[C@@H](O)C1=CC(=O)c2c(O)ccc(O)c2C1=O [Shikonin] + COc1cccc2cc(-c3nc([C@H]4CC[C@H](C(=O)O)CC4)n4ncnc(N)c34)[nH]c12 [OSI-027] (partner 0.5 µM)
# In short: (§2)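 Relative viability is defined as nuclei in treated wells over nuclei in vehicle wells. Duplicate plates were run and medians reported. Lung cancer cell lines in 1536-well plates were dosed by pin tool one day after seeding, with one drug or with a fixed anchor-drug dose plus five library-drug doses (not always all listed) in √10 steps, and nuclei were counted after 5 days.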
# [2] = compound: CC(C)N(CCCNC(=O)Nc1ccc(C(C)(C)C)cc1)C[C@H]1O[C@@H](n2ccc3c(N)ncnc32)[C@H](O)[C@@H]1O + Nc1nc2[nH]cc(CCc3ccc(C(=O)N[C@@H](CCC(=O)O)C(=O)O)cc3)c2c(=O)[nH]1 [Pemetrexed] (partner 0.2 µM)
# In short: as §2
Cell Line,relative viability (Shikonin; 0.01 µM),relative viability (Shikonin; 0.1 µM),relative viability (Shikonin; 0.3162 µM),relative viability (Shikonin; 1 µM),relative viability ([1]; 0.08 µM),relative viability ([1]; 0.253 µM),relative viability ([1]; 0.8 µM),relative viability ([1]; 2.53 µM),relative viability ([1]; 8 µM),relative viability (Shikonin + OSI-027; first compound 0.01 µM),relative viability (Shikonin + OSI-027; first compound 0.1 µM),relative viability (Shikonin + OSI-027; first compound 0.3162 µM),relative viability (Shikonin + OSI-027; first compound 1 µM),relative viability ([2]; first compound 0.08 µM),relative viability ([2]; first compound 0.253 µM),relative viability ([2]; first compound 0.8 µM),relative viability ([2]; first compound 2.53 µM),relative viability ([2]; first compound 8 µM)
NCI-H520,0.947,1.06,0.977,0.931,0.882,0.773,0.793,0.98,0.939,0.288,0.243,0.209,0.304,0.614,0.743,0.663,0.787,0.7
NCI-H522,0.962,1.09,0.955,0.956,0.868,0.898,0.885,0.99,0.997,0.566,0.729,0.72,0.809,0.991,0.944,0.904,1.01,1.04
NCI-H596,0.935,0.962,1.04,1.08,0.976,0.795,0.962,1.11,1.09,0.584,0.968,0.754,0.679,0.515,0.465,0.514,0.53,0.493
NCI-H647,1.07,1.08,1.08,0.9,0.912,0.831,0.812,0.955,0.864,0.712,0.631,0.666,0.602,0.197,0.164,0.143,0.194,0.176
NCI-H650,1.08,0.937,0.999,0.913,0.831,0.902,1.06,0.775,0.882,0.612,0.555,0.592,0.568,0.882,0.884,0.908,0.742,1.01
NCI-H661,1,1.06,1.06,0.928,1.04,0.962,1.04,1.02,1,0.685,0.774,0.782,0.842,0.91,0.892,0.894,0.977,0.912
NCI-H838,1.09,1.04,1.03,0.988,0.92,0.748,0.931,0.958,0.904,0.387,0.345,0.405,0.459,0.259,0.223,0.283,0.245,0.235
NCI-H1355,0.981,1.08,1.02,1.04,0.913,0.915,0.75,1.03,0.879,0.457,0.405,0.37,0.483,0.964,1.05,0.761,1.03,0.976
NCI-H1395,0.899,0.987,0.846,0.987,0.838,0.782,0.646,0.933,0.799,0.582,0.681,0.661,0.732,0.882,0.705,0.553,0.899,0.922
NCI-H1437,0.989,1.01,0.998,0.989,0.926,0.941,0.92,0.965,0.957,0.936,0.833,0.849,0.952,0.31,0.307,0.325,0.296,0.283
NCI-H1563,0.944,0.954,1.01,0.959,0.918,0.849,0.944,1.03,0.957,0.678,0.714,0.798,0.769,0.774,0.585,0.795,0.774,0.782
NCI-H1648,0.911,0.686,1.07,1.08,0.756,0.935,0.68,0.784,0.823,0.253,0.285,0.285,0.26,0.741,0.81,0.472,0.6,0.942
NCI-H1650,0.914,0.992,0.782,0.962,0.865,0.909,–,0.952,0.934,0.596,0.459,0.392,0.487,0.306,0.395,0.34,0.35,0.277
NCI-H1651,1.09,0.919,1.01,1.02,0.963,0.918,0.92,1,0.957,0.744,0.469,0.708,0.686,0.654,0.527,0.57,0.599,0.601
NCI-H1666,0.966,1.02,1.08,1.05,1.06,1.03,0.975,1.05,0.914,0.936,0.833,0.862,0.966,0.895,0.909,0.919,0.796,0.819
NCI-H1734,0.935,1.15,1.02,0.991,0.926,0.804,0.962,0.949,0.916,0.661,0.713,0.624,0.53,0.397,0.417,0.431,0.417,0.412
NCI-H1755,1.03,1.01,1.12,1,1.01,0.944,0.856,0.926,0.913,0.765,0.736,0.827,0.687,0.391,0.447,0.387,0.489,0.348
NCI-H1792,0.987,0.991,0.922,1.22,1.06,–,0.812,0.912,0.99,0.7,0.63,0.853,0.805,0.769,–,0.697,0.882,0.747

Cell Line,relative viability (Shikonin; 0.01 µM),relative viability (Shikonin; 0.1 µM),relative viability (Shikonin; 0.3162 µM),relative viability (Shikonin; 1 µM),relative viability ([1]; 0.08 µM),relative viability ([1]; 0.253 µM),relative viability ([1]; 0.8 µM),relative viability ([1]; 2.53 µM),relative viability ([1]; 8 µM),relative viability (Shikonin + OSI-027; first compound 0.01 µM),relative viability (Shikonin + OSI-027; first compound 0.1 µM),relative viability (Shikonin + OSI-027; first compound 0.3162 µM),relative viability (Shikonin + OSI-027; first compound 1 µM),relative viability ([2]; first compound 0.08 µM),relative viability ([2]; first compound 0.253 µM),relative viability ([2]; first compound 0.8 µM),relative viability ([2]; first compound 2.53 µM),relative viability ([2]; first compound 8 µM)
NCI-H1793,0.926,1.1,0.85,0.936,0.865,–,0.861,0.891,0.854,0.223,0.271,0.291,0.301,0.77,–,0.831,0.801,0.767
NCI-H1915,1.07,1.17,1.05,1.06,0.957,1.01,0.848,0.947,0.942,0.615,0.737,0.634,0.595,0.444,0.473,0.449,0.467,0.497
NCI-H1944,0.993,1.06,1.12,0.986,0.979,0.878,0.762,0.976,0.936,0.397,0.462,0.423,0.459,0.601,0.593,0.552,0.695,0.595
NCI-H1975,0.956,0.946,0.955,1.05,0.844,0.837,0.594,0.843,0.743,0.728,0.763,0.7,0.68,0.303,0.296,0.292,0.3,0.286
NCI-H1993,0.915,1.01,0.94,0.974,0.86,–,0.905,0.919,0.922,0.558,0.522,0.561,0.582,0.564,–,0.533,0.638,0.543
NCI-H2009,0.996,1.11,0.981,0.727,1.01,0.969,0.961,0.985,0.934,0.687,0.622,0.52,0.257,0.994,1.05,0.97,0.975,0.953
NCI-H2023,1.05,1.17,1.19,0.972,0.955,0.864,0.977,0.931,0.846,0.394,0.367,0.443,0.408,0.246,0.246,0.232,0.215,0.213
NCI-H2085,0.992,1.05,0.985,0.983,0.93,0.905,1.03,1.02,0.983,0.832,0.973,0.73,0.773,0.877,0.61,0.899,1.05,0.975
NCI-H2087,1.33,1.02,1.12,1.02,1.08,0.934,0.799,1.15,1.07,0.602,0.616,0.66,0.502,0.718,0.653,0.714,0.735,0.662
NCI-H2126,1.01,1.07,1.07,1.03,0.955,0.918,0.942,0.961,0.905,0.709,0.638,0.735,0.67,0.657,0.619,0.696,0.665,0.691
NCI-H2170,1.01,0.866,1.12,0.99,0.972,0.937,0.924,1.02,0.975,0.729,0.695,0.782,0.777,0.261,0.263,0.261,0.296,0.29
NCI-H2228,1.07,0.991,1.12,1.17,0.925,1,0.903,0.949,1.09,0.698,0.67,0.615,0.639,0.336,0.326,0.313,0.298,0.337
NCI-H2342,0.941,0.943,1.11,0.991,1.01,1.08,0.815,1.01,1.05,0.597,0.589,0.646,0.671,0.807,0.722,0.729,0.718,0.801
NCI-H2347,0.971,1.07,1.06,0.984,1.02,0.963,0.935,1.06,0.955,0.444,0.425,0.391,0.398,0.444,0.411,0.439,0.441,0.409
NCI-H2405,0.998,1.04,1.08,1.02,1.02,0.974,0.931,1.06,0.966,0.644,0.661,0.67,0.658,1.09,1.08,0.999,1.01,0.968
NCI-H3122,1.03,1.07,1.07,1.04,0.978,0.98,0.965,0.954,0.993,1.07,1.27,1.03,1.06,0.211,0.194,0.198,0.192,0.199
PC-3 [JPC-3],1.1,1.05,1.09,1.07,0.969,1.06,0.883,1.03,0.934,0.851,0.746,0.759,0.751,1.06,1.08,–,1.09,1.08
